Data taken from the NIST ThermoML archive (doi:10.1021/je5007218).
± gives the expanded uncertainty stated by the source.

Experiment: refractive index (Na D-line) (dimensionless)
Conditions: 293.15 K; 101.33 kPa; Liquid; Standard Abbe refractometry

| refractive index | Compound |
| --- | --- |
| 1.39563 ± 0.0004 | CC(C)CO [2-methyl-1-propanol] |
| 1.34386 ± 0.00035 | CC#N [acetonitrile] |
| 1.39928 ± 0.0004 | CCCCO [butan-1-ol] |
| 1.33299 ± 0.00035 | O [water] |
